Measured values as given in article PMC7463460, “Structure and Antiparasitic Activity Relationship of Alkylphosphocholine Analogues against Leishmania donovani” (Microorganisms, 2020).
Values joined by “and” are separate entries in the source; they are usually repeats but may differ in a detail not shown here. Equal values may be shown once. Read-outs that look alike come from different tables or passages of the source.

Assays:
[1] = parameters: method as in Anatrace product description sheet; conditions: critical micellar concentration; ref Anatrace product description sheet; cited from earlier work
[2] = test system: L. donovani 275/18 Milt-Sb-resistant intracellular amastigotes; experiment: Intracellular amastigote assay, Milt-resistant 275/18; format: cell-based, Leishmania donovani; conditions: for IC50: Leishmania donovani, read-out: Mean IC50 Value Amastigotes; for Selectivity Index (SI50): macrophage CC50 / amastigote IC50
Excerpt: L. donovani cloned strains with different Sb susceptibility backgrounds were derived from isolates obtained from VL patients at the B.P. Koirala Institute of Health Sciences, Dharan, Nepal: MHOM/NP/02/BPK282/0cl4 (Sb sensitive, Sb-S). MHOM/NP/02/BPK087/0cl11 (Sb intermediate, Sb-I) and MHOM/NP/02/BPK275/0cl18 (Sb resistance, Sb-R [13]). In addition, Milt-resistant parasites raised against these three Sb sensitivity backgrounds and the Sb-sensitive strain (MHOM/ET/67:LV82) was also used in studies. Luciferase expressing promastigotes for the LV82 and Nepalese strains were prepared using previously published methods and the integrative construct (a gift from Dr D.F. Smith), designated pGL1313, contained pSSU-int fragments to facilitate integration into the ribosomal RNA locus of Leishmania.
In the macrophage studies, the method described in previous studies was used as follows. Briefly, bone-marrow-derived BALB/c macrophages (1–2 × 10^5) in 100 µL complete RPMI 1640 medium were added to the wells of a 96 well plate and left to adhere for 24 h at 37 °C, 5% CO₂/95% air. The medium was removed and 100 µL of the appropriate L. donovani luciferase-expressing promastigotes line (parasite: host cell ratio 1:10, 1:20 or 1:40) was added to each well, the ratio used reflected the infectivity of the strain and ensured that control data gave a bioluminescent signal within the same range. […] The variability in infectivity complicates strain to strain comparisons, but we decided to focus on achieving good infection levels in controls so that the effect of drug treatment could be determined. It is possible that intracellular macrophage parasites could have been at different developmental stages at 24 h post-infection. […] Therefore, we assumed that the effect of compounds on the amastigote stage rather than the promastigotes stage was determined in in vitro macrophage studies.
The plate was incubated for a further 24 h, the medium removed, and each well washed with PBS to eliminate non-internalized parasites, which were monitored microscopically. When the wells were devoid of external parasites, 100 µL of the medium alone (control) or appropriate APC compound was then added (0.01–0.197 µg/mL, n = 3/treatment). […]. All plates were incubated for 72 h at 37 °C, 5% CO₂/95% air. Wells with macrophage and with no drug or promastigotes added were used in control experiments.
(§1) Luciferin solution (1 µg/mL in 20 µL medium without FCS) was added to the appropriate wells of the 96-well plate at the end of the experiment and the amount of light emitted/well was measured using a luminometer (Biotek Synergy HT, relative light units) using a wavelength/bandwidth of 440/40 nm, or IVIS® imaging (Spectrum Living Image system®, total flux, photons/sec).
The effect of drug treatment on parasite survival was determined by calculating the mean suppression in the light emitted from the drug-treated experimental sample compared to the mean control value and used to calculate the IC50 using Grafit® software (version 5.0, Erithacus Software, East Grinstead, West Sussex, UK). The effect of drug alone on the viability of uninfected macrophages was determined using the same experimental protocol above, but cell viability was determined using an alamar blue colorimetric assay. At the end of the incubation period, cells’ 10 µL resazurin solution (0.02% w/v) was added to control and drug treated cells and the absorbance of samples was read at 575 and 595 nm. The effect of drug treatment on cell survival, which correlates with the magnitude of dye reduction, was expressed as percentage viability (or alamar blue reduction) and determined using the formula provided in the manufacturer’s protocol % alamar blue reduction=(εoxλ)(Aλ1)−(εoxλ1)(Aλ2)/(εredλ1)(A^′λ2)−(εredλ2)(A^′λ1)x100 […]

[3] = test system: L. donovani LV82 intracellular amastigotes; experiment: Intracellular amastigote assay in bone-marrow-derived macrophages, strain LV82; format: cell-based, Leishmania donovani; conditions: for IC50 / IC90: Leishmania donovani, Macrophage; for IC50: in Mus musculus, 72 h; for IC90: LV82; for Selectivity Index (SI50): macrophage CC50 / LV82 intracellular amastigote IC50
Experimental: In the macrophage studies, the method described in previous studies was used as follows. […] It is possible that intracellular macrophage parasites could have been at different developmental stages at 24 h post-infection. […] Therefore, we assumed that the effect of compounds on the amastigote stage rather than the promastigotes stage was determined in in vitro macrophage studies.
The plate was incubated for a further 24 h, the medium removed, and each well washed with PBS to eliminate non-internalized parasites, which were monitored microscopically. […] Wells with macrophage and with no drug or promastigotes added were used in control experiments.
as §1
The effect of drug treatment on parasite survival was determined by calculating the mean suppression in the light emitted from the drug-treated experimental sample compared to the mean control value and used to calculate the IC50 using Grafit® software (version 5.0, Erithacus Software, East Grinstead, West Sussex, UK). The effect of drug alone on the viability of uninfected macrophages was determined using the same experimental protocol above, but cell viability was determined using an alamar blue colorimetric assay. […] The effect of drug treatment on cell survival, which correlates with the magnitude of dye reduction, was expressed as percentage viability (or alamar blue reduction) and determined using the formula provided in the manufacturer’s protocol % alamar blue reduction=(εoxλ)(Aλ1)−(εoxλ1)(Aλ2)/(εredλ1)(A^′λ2)−(εredλ2)(A^′λ1)x100

[4] = Cytotoxicity against uninfected macrophages (alamar blue); format: cell-based, BALB/c mice; conditions: BALB/c, mouse, read-out: Macrophage mean IC50 (CC50) (converted)
Experimental: The effect of drug treatment on parasite survival was determined by calculating the mean suppression in the light emitted from the drug-treated experimental sample compared to the mean control value and used to calculate the IC50 using Grafit® software (version 5.0, Erithacus Software, East Grinstead, West Sussex, UK). The effect of drug alone on the viability of uninfected macrophages was determined using the same experimental protocol above, but cell viability was determined using an alamar blue colorimetric assay. At the end of the incubation period, cells’ 10 µL resazurin solution (0.02% w/v) was added to control and drug treated cells and the absorbance of samples was read at 575 and 595 nm. The effect of drug treatment on cell survival, which correlates with the magnitude of dye reduction, was expressed as percentage viability (or alamar blue reduction) and determined using the formula provided in the manufacturer’s protocol % alamar blue reduction=(εoxλ)(Aλ1)−(εoxλ1)(Aλ2)/(εredλ1)(A^′λ2)−(εredλ2)(A^′λ1)x100
In the formula, ελ1 and ελ2 are constants representing the molar extinction coefficient of alamar blue at 575 and 595 nm, respectively, in the oxidized (εox) and reduced (εred) forms. Aλ1, Aλ2 and A’λ1, A’λ2 represent absorbance of test and negative control wells at 575 and 595 nm, respectively. The values of % alamar blue reduction (or % viability) were corrected for background values of negative controls containing medium without cells. Percent viability values were used to calculate the IC50 using Grafit® software (version 5.0).

[5] = strain 275/18, Milt-Sb-resistant
[6] = LV82, intracellular in BALB/c macrophages, 3 days, 37 °C
[7] = uninfected bone-marrow-derived macrophages

SMILES	CMC [1]	IC50 [2]	Selectivity Index (SI50) [2, 5]	Amastigote mean IC50 [3, 6]	IC50 [3, 6]	IC90 [3]	fold more active than Milt (APC16) ([3]; intracellular amastigotes)	Selectivity Index (SI50) [3]	IC50 at 3 days [4, 7]	Cross-Resistance Index (CRI50) Amast [2, 5]	IC50 at 3 days [4]
CCCCCCCCCCCCOP(=O)([O-])OCC[N+](C)(C)C [APC12, dodecylphosphocholine]	351.50 µg/mL	4.45 µg/mL and 12.7 µM	7.95	0.01 ± 0.00 µg/mL	0.009 µg/mL and 26 nM	0.081 ± 0.01 µg/mL	4 fold	3870.77	35.4 µg/mL and 101 µM	–	–
CCCCCCCCCCCCCCOP(=O)([O-])OCC[N+](C)(C)C [APC14, tetradecylphosphocholine]	45.54 µg/mL	34.9 µg/mL and 91.8 µM	1.17	–	0.03 µg/mL and 66 nM	–	–	1632.58	40.9 µg/mL and 108 µM	> 20.144	–
CCCCCCCCCCCCCCCCOP(=O)([O-])OCC[N+](C)(C)C [APC16, hexadecylphosphocholine, reference compound]	0.41 µg/mL	> 61.4 µg/mL and > 151 µM	–	–	0.1 µg/mL and 250 nM	0.9 ± 0.016 µg/mL	–	–	–	–	5.08 µg/mL and 12.5 µM
